In patent US7795220B2, “Conformationally constrained parathyroid hormones with alpha-helix stabilizers” (The General Hospital Corporation, priority 2003, dated 2010):
Non-standard residues stand in square brackets, D forms with d. Residues, ends and D or L forms follow the SMILES beside them. No end group written: not given here. hArg = N=C(N)NCCCC[C@H](N)C(=O)O; Ac5c = NC1(C(=O)O)CCCC1; Deg = CCC(N)(CC)C(=O)O; Aib = CC(C)(N)C(=O)O

Key:
hP1R-delNt = target: T1, hP1R-delNt (Homo sapiens, UniProt Q03431); test: cAMP stimulation in LdelNt-2 cells; assay type: cell-based
T1 construct: expressed in transfected cells
T1 sequence (Q03431 with tags, fused parts or gaps limits assumed): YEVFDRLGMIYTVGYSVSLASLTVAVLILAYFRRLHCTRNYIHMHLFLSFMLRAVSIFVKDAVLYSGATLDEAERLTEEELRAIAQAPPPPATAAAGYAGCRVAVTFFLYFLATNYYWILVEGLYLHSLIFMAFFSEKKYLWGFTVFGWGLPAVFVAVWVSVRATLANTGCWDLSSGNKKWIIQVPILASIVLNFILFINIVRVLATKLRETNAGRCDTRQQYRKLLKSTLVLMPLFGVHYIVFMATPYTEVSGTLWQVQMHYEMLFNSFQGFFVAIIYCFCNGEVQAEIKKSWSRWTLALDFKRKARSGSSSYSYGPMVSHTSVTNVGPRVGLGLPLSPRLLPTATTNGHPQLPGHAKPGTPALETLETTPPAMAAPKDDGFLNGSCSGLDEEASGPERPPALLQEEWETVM
Source text: (§1) Cell Culture. The cell line HKRK-B28 (Takasu, H., et al., J. Bone Miner. Res. 14:11-20 (1999)) was derived from the porcine kidney cell line, LLC-PK1 by stable transfection with plasmid DNA encoding a recombinant P1R chimera comprised of the opposum P1R from the N-terminus to the mid region of TM3 and the rat P1R from the mid region of TM3 to the C-terminus. The surface density of the P1R in these cells is ˜280,000 receptors per cell. The clonal cell line LdelNt-2 was derived from LLC-PK, cells via stable transfection with a plasmid encoding P1R-delNt, a recombinant human PTH-1 receptor construct in which most of the amino-terminal extracellular domain is deleted. These cells, as well as COS-7 cells and SaOS-2-B10 cells, were cultured at […] in T-75 flasks ([…]) in Dulbecco's modified Eagle's medium (DMEM) supplemented with fetal bovine serum (10%), penicillin G (20 units/ml), streptomycin sulfate (20 μg/ml) and amphotericin B (0.05 μg/ml) in a humidified atmosphere containing 5% CO2. Stock solutions of EGTA/trypsin and antibiotics were from GLBCO; fetal bovine serum was from Hyclone Laboratories (Logan, Utah). COS-7 cells sub-cultured in 24-well plates were transfected with plasmid DNA (200 ng per well) encoding the wild-type human P1R or truncated human P1R deleted for residues (24-181) (Shimizu, M., et al., J. Biol. Chem. 275:21836-21843 (2000)) that was purified by cesium chloride/ethidium bromide density gradient centrifugation, and FuGENE 6 transfection reagent (Roche Indianapolis Ind.) according to the manufacturer's recommended procedure. All cells, in 24-well plates, were treated with fresh media and shifted to 33° C. for 12 to 24 h prior to assay.
(§2) cAMP Stimulation. Stimulation of cells with peptide analogs was performed in 24-well plates. Cells were rinsed with 0.5 mL of binding buffer (50 mM Tris-HCl, 100 mM NaCl, 5 mM KCl, 2 mM CaCl2, 5% heat-inactivated horse serum, 0.5% fetal bovine serum, adjusted to pH 7.5 with HCl) and treated with 200 μL of cAMP assay buffer (Delbecco's modified Eagle's medium containing 2 mM 3-isobutyl-1-methylxanthine, 1 mg/mL bovine serum albumin, 35 mM Hepes-NaOH, pH 7.4) and 100 μL of binding buffer containing varying amounts of peptide analog (final volume=300 μL). The medium was removed after incubation for 30 to 60 minutes at room temperature, and the cells were frozen on dry ice, lysed with 0.5 mL 50 mM HCl, and refrozen ([…]). The cAMP content of the diluted lysate was determined by radioimmunoassay. The EC50 response values were calculated using nonlinear regression (see below).
(§3) Data Calculation. Calculations were performed using Microsoft® Excel. Nonlinear regression analyses of binding and cAMP dose-response data were performed using the four-parameter equation: yp=Min+[(Max−Min)/(1+(IC50/x)^slope)]. The Excel Solver function was utilized for parameter optimization, as described previously (Carter, P. H., et al., Endocrinology 140: 4972-4981 (1999); Bowen, W. P., and Jerman, J. C., Trends in Pharmacol. Sci. 16: 413-417 (1995)). Differences between paired data sets were statistically evaluated using a one-tailed Student's t-test, assuming unequal variances for the two sets.
Agonist activities of selected analogs in cells expressing P1R-delNt were examined. This PTH-1 receptor construct lacks most of the N domain, but nevertheless mediates full agonist responses to N-terminally modified PTH analogs, and thus enables the relative roles of the receptor's N and J domains to the ligand interaction process to be evaluated. The clonal cell line LdelNT-2 was used, which was derived from LLC-PK, cells by stable transfection with a plasmid encoding the human P1R-delNt construct.

[1] = tested on: P1R (recombinant P1R chimera) in HKRK-B28 cells; test: cAMP stimulation in HKRK-B28 cells; assay type: cell-based, opposum/rat chimera
Source text: as §1, §2, §3

[2] = target: T2, P1R (recombinant P1R chimera) in HKRK-B28 cells (UniProt P25107+P25961, A364S/A509S/A517P/A524T/DEL519-521/E344G/G506A/H528S/I365V/I416T/I429T/K402R/K465R/L320I/M408V/N352H/S511P/S523T/T335G/T421L/T487S/V367L/V433I); test: biochemical; assay type: binding, opposum/rat chimera
T2 construct: the opposum P1R from the N-terminus to the mid region of TM3; the rat P1R from the mid region of TM3 to the C-terminus; expressed in transfected cells
T2 sequence (P25107+P25961 fused with the stated changes): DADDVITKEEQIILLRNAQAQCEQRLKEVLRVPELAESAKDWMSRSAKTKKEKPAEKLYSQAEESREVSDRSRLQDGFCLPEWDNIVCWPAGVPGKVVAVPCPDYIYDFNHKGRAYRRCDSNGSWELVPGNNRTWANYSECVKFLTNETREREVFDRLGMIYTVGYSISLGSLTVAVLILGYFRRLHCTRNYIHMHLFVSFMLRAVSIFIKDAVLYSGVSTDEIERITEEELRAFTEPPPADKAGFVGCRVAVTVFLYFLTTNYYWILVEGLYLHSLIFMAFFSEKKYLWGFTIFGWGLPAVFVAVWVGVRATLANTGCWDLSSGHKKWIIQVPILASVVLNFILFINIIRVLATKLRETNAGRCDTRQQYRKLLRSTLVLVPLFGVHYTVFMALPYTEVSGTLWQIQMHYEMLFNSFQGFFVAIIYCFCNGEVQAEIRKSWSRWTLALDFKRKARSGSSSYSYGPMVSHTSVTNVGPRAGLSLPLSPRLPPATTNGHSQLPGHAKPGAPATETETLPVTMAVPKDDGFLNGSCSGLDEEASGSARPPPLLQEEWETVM
Source text: as §1
Competition Binding. Binding reactions were performed with HKRK-B28 cells or in COS-7 cells in 24-well plates. The cells were rinsed with 0.5 mL of binding buffer, and then treated successively with 100 μL binding buffer, 100 μL of binding buffer containing various amounts of unlabeled competitor ligand, and 100 μL of binding buffer containing ca. 100,000 cpm of ^125I-[Aib^1,3,Nle^8,Gln^10,Har^11,Ala^12,Trp^14,Arg^19,Tyr^21]rPTH(1-21) (SEQ. ID. NO. 36) (ca. 26 fmol; final volume=300 μL). Incubations were 4 to 6 h at 4° C., at which time near equilibrium conditions were attained. Cells were then placed on ice, the binding medium was removed, and the monolayer was rinsed three times with 0.5 mL of cold binding buffer. The cells were subsequently lysed with 0.5 mL 5N NaOH and counted for radioactivity. For each tracer and in each experiment, the non-specific binding was determined as the radioactivity that bound in the presence of the same unlabeled peptide at a concentration of 1 μM, and was ˜1% of total radioactivity added for each tracer. The maximum specific binding (B0) was the total radioactivity bound in the absence of competing ligand, corrected for nonspecific binding, and for each tracer, ranged from 8% to 20% of the total radioactivity added. Nonlinear regression was used to calculate binding IC50 values (see below). Scatchard transformations of homologous competition binding data derived from studies with 26 fmol of ^125I-[Aib^1,3,Nle^8,Gln^10,Har^11,Ala^12,Trp^14, Arg^19,Tyr^21]rPTH(1-21) (SEQ. ID. NO. 36) were employed for estimations of apparent equilibrium dissociation constant (kDapps) and total number of ligand binding sites (Bmax), assuming a single class of binding sites and equal affinities of the iodinated and non iodinated ligand.
Data Calculation. Calculations were performed using Microsoft® Excel. Nonlinear regression analyses of binding and cAMP dose-response data were performed using the four-parameter equation: yp=Min+[(Max−Min)/(1+(IC50/x)^slope)]. The Excel Solver function was utilized for parameter optimization, as described previously (Carter, P. H., et al., Endocrinology 140: 4972-4981 (1999); Bowen, W. P., and Jerman, J. C., Trends in Pharmacol. Sci. 16: 413-417 (1995)). […]

P1R = test: Antagonism of agonist-induced cAMP activity; assay type: cell-based; conditions: analog at 10^−5 M, agonist at 10^−9 M
Protocol: Polypeptides described herein can be screened for their agonistic or antagonistic properties using the cAMP accumulation assay. Cells expressing PTH-1 receptor on the cell surface are incubated with native PTH(1-84) (SEQ. ID. NO. 18) for 5-60 minutes at 37° C., in the presence of 2 mM IBMX (3-isobutyl-1-methyl-xanthine, Sigma, St. Louis, Mo.). Cyclic AMP accumulation is measured by specific radio-immunoassay. A compound that competes with native PTH(1-84) or PTH(1-34) (SEQ. ID. NO. 19) for binding to the PTH-1 receptor, and that inhibits the effect of native PTH(1-84) or PTH(1-34) on cAMP accumulation, is considered a competitive antagonist. Such a compound would be useful for treating hypercalcemia.
Ligands that function as antagonists can be useful for treating hyperparathyroidism. Analogs of [Ac5c^1, Aib^3, M]PTH(1-14)(parent) (SEQ. ID. NO. 15) containing N-terminal modifications predicted to dissociate signaling and binding affinity (e.g. desamino-1, Trp-2, Bpa-2, Arg-2, Deg-1,3).

CC[C@H](C)[C@H](NC(=O)[C@H](CCC(=O)O)NC(=O)C(C)(C)NC(=O)[C@@H](NC(=O)C(C)(C)N)C(C)C)C(=O)N[C@@H](CCC(N)=O)C(=O)N[C@@H](CC(C)C)C(=O)N[C@@H](CCSC)C(=O)N[C@@H](Cc1c[nH]cn1)C(=O)N[C@@H](CCC(N)=O)C(=O)N[C@@H](CCCCNC(=N)N)C(=O)N[C@@H](C)C(=O)N[C@@H](CCCCN)C(=O)N[C@@H](Cc1c[nH]c2ccccc12)C(N)=O [[Aib^1,3,M]PTH(1-14), [Aib^1,3,Gln^10,Har^11,Ala^12,Trp^14]PTH(1-14)NH2] (H-[Aib]V[Aib]EIQLMHQ[hArg]AKW-NH2)
EC50 (hP1R-delNt): 6.4 ± 1.6 nM

CC[C@H](C)[C@H](NC(=O)[C@H](CCC(=O)O)NC(=O)C(CC)(CC)NC(=O)[C@@H](NC(=O)C(N)(CC)CC)C(C)C)C(=O)N[C@@H](CCC(N)=O)C(=O)N[C@@H](CC(C)C)C(=O)N[C@@H](CCSC)C(=O)N[C@@H](Cc1c[nH]cn1)C(=O)N[C@@H](CCC(N)=O)C(=O)N[C@@H](CCCCNC(=N)N)C(=O)N[C@@H](C)C(=O)N[C@@H](CCCCN)C(=O)N[C@@H](Cc1c[nH]c2ccccc12)C(N)=O [[Deg^1,3,M]PTH(1-14), [Deg^1,3,Gln^10,Har^11,Ala^12,Trp^14]PTH(1-14)NH2] (H-[Deg]V[Deg]EIQLMHQ[hArg]AKW-NH2)
EC50 (hP1R-delNt): 1400 ± 500 nM | agonist behavior (in words) (hP1R-delNt): partial agonist behavior | increase in cAMP accumulation (Emax) over basal (hP1R-delNt): 23 fold | maximum cAMP response as percent of that attained by the parent peptide ([1]; HKRK-B28 cells): 45% | cAMP agonist activity / signaling potency (in words) [1]: true partial agonist for cAMP formation | cAMP agonist activity / signaling potency (in words) ([1]; listed as [Deg^1,3,Gln^10,Har^11,Ala^12,Trp^14]pTH(1-14)NH2): partial agonist response | P1R binding affinity (in words) ([2]; in words): bound with adequate affinity | binding affinity higher than that of parent [M]PTH(1-14) ([2]; relative to parent [M]PTH(1-14)): 50 fold

[Ac5c^1,Aib^3]PTH(1-9)NH2 ([Ac5c]V[Aib]EIQLMH-NH2; N-terminus assumed; SMILES CC[C@H](C)[C@H](NC(=O)[C@H](CCC(=O)O)NC(=O)C(C)(C)NC(=O)[C@@H](NC(=O)C1(N)CCCC1)C(C)C)C(=O)N[C@@H](CCC(N)=O)C(=O)N[C@@H](CC(C)C)C(=O)N[C@@H](CCSC)C(=O)N[C@@H](Cc1c[nH]cn1)C(N)=O) [[Ac5c^1,Aib^3,M]PTH(1-9)]
increase in cAMP levels relative to basal ([1]; HKRK-B28 cells, peptide at 1×10^−4M): six | cAMP agonist activity / signaling potency (in words) [1]: clear cAMP response | cAMP agonist activity at single high concentration (in words) ([1]; peptide at 10^−4M): clear agonist activity | inhibition of tracer radioligand binding ([2]; concentrations as high as 1×10^−4M, HKRK-B28 cells): neither peptide inhibited the binding

[Ac5c^1,Trp^2,Aib^3, M]PTH(1-14) (H-[Ac5c]W[Aib]EIQLMHQ[hArg]AKW-NH2; SMILES CC[C@H](C)[C@H](NC(=O)[C@H](CCC(=O)O)NC(=O)C(C)(C)NC(=O)[C@H](Cc1c[nH]c2ccccc12)NC(=O)C1(N)CCCC1)C(=O)N[C@@H](CCC(N)=O)C(=O)N[C@@H](CC(C)C)C(=O)N[C@@H](CCSC)C(=O)N[C@@H](Cc1c[nH]cn1)C(=O)N[C@@H](CCC(N)=O)C(=O)N[C@@H](CCCCNC(=N)N)C(=O)N[C@@H](C)C(=O)N[C@@H](CCCCN)C(=O)N[C@@H](Cc1c[nH]c2ccccc12)C(N)=O)
inhibition of the agonist activity of [Aib1,3,M]PTH(1-14) (P1R): 50%
